target: T1, RORC2 ligand binding domain (6-His-RORC2 LBD) (Homo sapiens, UniProt P51449); test: Co-activator recruitment by TR-FRET (RORC2 FRET); format: biochemical; conditions: 6.3 nM RORC2 LBD, 200 nM SRC1-2 coactivator peptide, 3 hours room temperature
T1 construct: made in house; host or cells: E. coli
T1 sequence (P51449 269-508 limits assumed): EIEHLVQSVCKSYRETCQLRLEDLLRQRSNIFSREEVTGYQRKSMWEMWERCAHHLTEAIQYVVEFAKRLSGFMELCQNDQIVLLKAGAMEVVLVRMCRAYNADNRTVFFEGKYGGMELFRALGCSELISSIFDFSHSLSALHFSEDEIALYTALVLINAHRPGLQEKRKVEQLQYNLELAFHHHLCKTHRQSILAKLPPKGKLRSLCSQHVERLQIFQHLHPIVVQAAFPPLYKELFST
Source text: The activity of compound of the invention can be determined by a co-activator recruitment by TR-FRET (time-resolved fluorescence resonance energy transfer) assay. […] Due to the long lasting fluorescence emission of Europium, the non-specific, short-lived fluorescence is time-resolved (TR) from the fluorescence of interest. Inhibitors of the interaction of receptor and coactivator peptide are detected by a decrease in TR-FRET signal.
Specifically, in one embodiment the aforementioned assay was performed as outlined below. The assay was carried out in black polystyrene, 384-well plates in a total assay volume of 50.5 μL. The assay buffer contained 50 mM TRIS-HCL pH 7.5, 1 mM NaCl, 2 mM MgCl2, 0.5 mg/mL bovine serum albumin, and 5 mM dithiothreitol.

| SMILES | IC50 |
| --- | --- |
| Cn1cc(C2CCN(C(=O)C3CCCC3)C2)c2cc(NC(=O)c3cccc(C#N)c3)ccc21 (stereo not drawn) [Example 79, 3-cyano-N-(3-(1-(cyclopentylcarbonyl)pyrrolidin-3-yl)-1-methyl-1H-indol-5-yl)benzamide] | 199 nM |
| CC(C)c1cnc(N2CCC(c3cn(C)c4ccc(NC(=O)c5cccc(C#N)c5)cc34)CC2)nc1 [Example 80] | 259 nM |
| Cc1cnc(N2CCC(c3cn(C)c4ccc(NC(=O)c5cccc(C#N)c5)cc34)CC2)nc1 [Example 81, 3-cyano-N-(1-methyl-3-(1-(5-methylpyrimidin-2-yl)piperidin-4-yl)-1H-indol-5-yl)benzamide] | 335 nM |
| CC(C)c1cnc(N2CCC(c3cn(C)c4ccc(NC(=O)c5cccc(C#N)c5)cc34)CC2)nc1 [Example 82, 3-cyano-N-(3-[1-(5-isopropylpyrimidin-2-yl)piperidin-4-yl]-1-methyl-1H-indol-5-yl)benzamide] | 3960 nM |
| N#Cc1cccc(C(=O)Nc2ccc3onc(C4CCN(C(=O)C5CCCC5)CC4)c3c2)c1 [Example 83, 3-cyano-N-(3-(1-(cyclopentanecarbonyl)piperidin-4-yl)benzo[d]isoxazol-5-yl)benzamide] | 23.4 nM |
| N#Cc1cccc(C(=O)Nc2ccc3cnn(C4CCN(C(=O)C5CCCC5)CC4)c3c2)c1 [Example 84, 3-cyano-N-(1-(1-(cyclopentanecarbonyl)piperidin-4-yl)-1H-indazol-6-yl)benzamide] | 214 nM |
| N#Cc1cccc(C(=O)Nc2ccc3[nH]cc(C4CCN(C(=O)NC5CCCC5)CC4)c3c2)c1 [Example 85, 4-(5-(3-cyanobenzamido)-1H-indol-3-yl)-N-cyclopentylpiperidine-1-carboxamide] | 859 nM |
| N#Cc1cccc(C(=O)Nc2ccc3[nH]cc(C4CCN(S(=O)(=O)C5CCCC5)CC4)c3c2)c1 [Example 86, 3-cyano-N-(3-(1-(cyclopentylsulfonyl)piperidin-4-yl)-1H-indol-5-yl)benzamide] | > 20000 nM |
| N#Cc1cccc(C(=O)Nc2ccc3[nH]cc(C4CCN(CC5CCCC5)CC4)c3c2)c1 [Example 87, 3-cyano-N-(3-(1-(cyclopentylmethyl)piperidin-4-yl)-1H-indol-5-yl)benzamide] | > 20000 nM |
| Cc1c(NC(=O)c2cccc(C#N)c2)ccc2c1c(C1CCN(C(=O)C[C@@H](O)C(F)(F)F)CC1)cn2C [Example 89, (R)-3-cyano-N-(1,4-dimethyl-3-(1-(4,4,4-trifluoro-3-hydroxybutanoyl)-piperidin-4-yl)-1H-indol-5-yl)benzamide] | 14.2 nM |
| Cn1cc(C2CCN(C(=O)C[C@@H](O)C(F)(F)F)CC2)c2cc(NC(=O)c3cccc(C#N)c3)ccc21 [Example 90, (R)-3-cyano-N-(1-methyl-3-(1-(4,4,4-trifluoro-3-hydroxybutanoyl)piperidin-4-yl)-1H-indol-5-yl)benzamide] | 13.9 nM |
| Cn1cc(C2CCN(C(=O)C[C@@H](O)C(F)(F)F)CC2)c2cc(NS(=O)(=O)c3ccc(F)cc3)ccc21 [Example 91, (R)-4-fluoro-N-(1-methyl-3-(1-(4,4,4-trifluoro-3-hydroxybutanoyl)piperidin-4-yl)-1H-indol-5-yl)benzenesulfonamide] | 9.8 nM |
| CC(C)C(=O)N1CCC(c2cn(C)c3ccc(NS(=O)(=O)c4ccc(F)cc4)cc23)CC1 [Example 92, 4-fluoro-N-(3-(1-isobutyrylpiperidin-4-yl)-1-methyl-1H-indol-5-yl)benzenesulfonamide] | 10.5 nM |
| CC1CCN(S(=O)(=O)Nc2ccc3c(c2)c(C2CCN(C(=O)C4CCCC4)CC2)cn3C)CC1 [Example 93, N-(3-(1-(cyclopentanecarbonyl)piperidin-4-yl)-1-methyl-1H-indol-5-yl)-4-methylpiperidine-1-sulfonamide] | 4.9 nM |
| Cc1c(NC(=O)c2cccc(C#N)c2)cnc2c1c(C1CCN(C(=O)C[C@@H](O)C(F)(F)F)CC1)cn2C [Example 95, (R)-3-Cyano-N-(1,4-dimethyl-3-(1-(4,4,4-trifluoro-3-hydroxybutanoyl)piperidin-4-yl)-1H-pyrrolo[2,3-b]pyridin-5-yl)benzamide] | 46.8 nM |

Source: patent US20160046597A1, “RORC2 INHIBITORS AND METHODS OF USE THEREOF” (PFIZER INC., priority 2013, published 2016)
